The values below come from patent US20170209544A1, “A PEPTIDE THERAPY TO COUNTERACT INSULIN RESISTANCE AND TYPE 2 DIABETES” (The Regents of the University of California, priority 2014, published 2017).

One test has as its system KO-DIO mice. As to the kind of experiment: GTT, ITT and fasting insulin in PST-treated KO-DIO mice. The format is in vivo. The protocol: For glucose tolerance tests (GTT), glucose (1 mg/g) was injected intraperitoneally (IP-GTT) (at time zero) or gavaged orally (O-GTT) after a 12-hours fast. Tail-vein glucose levels were measured at −30, 0, 15, 30, 60, 90, and 120 minutes. For insulin tolerance tests (ITT), insulin (0.4 mU/g) was injected intraperitoneally and blood glucose levels were measured at the indicated time points. Chronic PST (5 μg/g/day) and PSTv1 (10 μg/day) treatments were carried out for 15 days. For acute treatment, either peptides or saline were injected 30 minutes before glucose or insulin injection. Synergy Software Kaleidagraph Version 4.0 calculated the area under the curve (AUC) for each line curve.
Despite increased obesity, KO-DIO mice maintained insulin sensitivity as shown by GTT and ITT. […] WT-DIO and KO-DIO male mice with mixed genetic background were fasted for 12 hrs and subjected to IP-GTT (2-way ANOVA: Strain, p<0.0001; Time, p<0.0001; Interaction, p<0.045; n=8, as shown in FIGS. 12A and 12B), oral GTT (2-way ANOVA: Strain, p<0.0001; Time, p<0.0001; Interaction, p=0.09; n=8, as shown in FIGS. 12C and 12D), or IP-ITT (2-way ANOVA: Treatment (WT), p<0.0001; Time, p<0.0001; Interaction, p=0.56; Treatment (KO), p<0.0001; Time, p<0.0001; Interaction, 0.43; n=9, as shown in FIGS. 12E and 12F), and AUC for glucose excursions were determined (see FIGS. 12B, 12D and 12F). […] and the corresponding AUC were shown in FIGS. 12E and 12F, respectively. Body weight-matched WT-DIO and KO-DIO mice were fasted for 12 hrs and subjected to clamp studies to determine glucose infusion rate (GIR, shown in FIG. 12G), glucose disposal rate (GDR, shown in FIG. 12H), (I) insulin-stimulated GDR (IS-GDR, shown in FIG. 12I) and % suppression of hepatic glucose production (HGP) (n=8-9, shown in FIG. 12J). Fasting (12 hrs) basal levels of plasma insulin before (FIG. 12K) and after (FIG. 12L) chronic PST treatment (5 μg/g BW/day, IP for 15 days) (n=6) were shown. “&” Indicates comparison between WT-DIO+Sal and KO-DIO+Sal, “$” indicates comparison between WT-DIO+Sal and WT-DIO+PST, “#” indicates comparison between KO-DIO+Sal and KO-DIO+PST, and “*” indicates comparison between the indicated groups. “*, $ or #”: P<0.05, “**, &&, ## or $$”: p<0.01, “***, ### or &&&”: p<0.001.

For another test, the target named is Bip/GRP78 (Mus musculus, UniProt P20029). Kind of test: Pull down assay using biotinylated PST. The format is binding. From the text:
PST interacts with ER chaperone, GRP78/BiP. […] Moreover, PST inhibits GRP78's ATPase enzymatic activity, and impairs its biosynthetic response to UPR activation. PST as an inhibitor of ATPase activity augments expression of gluconeogenic gene and G6Pase. GRP78 over-expression antagonizes this PST action.

Where [1] appears, read: chronic PST 5 μg/g BW/day IP for 15 days, over WT-DIO levels.

Where no end group is shown, it is not given here.

Bip/GRP78, sequence (P20029 20-655): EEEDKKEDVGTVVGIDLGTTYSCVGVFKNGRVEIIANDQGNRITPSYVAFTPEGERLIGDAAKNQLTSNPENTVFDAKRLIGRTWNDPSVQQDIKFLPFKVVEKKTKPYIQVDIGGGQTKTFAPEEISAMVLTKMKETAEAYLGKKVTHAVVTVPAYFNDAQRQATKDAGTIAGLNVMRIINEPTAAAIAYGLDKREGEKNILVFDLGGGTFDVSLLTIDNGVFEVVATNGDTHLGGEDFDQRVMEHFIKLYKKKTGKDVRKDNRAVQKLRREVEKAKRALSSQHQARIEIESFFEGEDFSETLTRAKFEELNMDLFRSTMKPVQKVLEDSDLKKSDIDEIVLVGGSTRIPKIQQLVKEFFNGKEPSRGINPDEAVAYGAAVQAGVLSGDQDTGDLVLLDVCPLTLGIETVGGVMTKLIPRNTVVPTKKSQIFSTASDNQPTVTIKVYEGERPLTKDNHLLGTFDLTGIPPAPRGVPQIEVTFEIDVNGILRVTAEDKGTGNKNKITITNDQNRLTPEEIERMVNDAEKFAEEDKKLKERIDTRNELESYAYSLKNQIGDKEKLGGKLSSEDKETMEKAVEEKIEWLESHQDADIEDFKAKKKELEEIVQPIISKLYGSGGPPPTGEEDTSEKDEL

Take “PEGKGEQEHSQQKEEEEEMAVVPQGLFRG-amide (PEGKGEQEHSQQKEEEEEMAVVPQGLFRG-NH2) [PST, Wild-type human pancreastatin, a chromogranin A derived peptide]”: in the test on KO-DIO mice (PST for 5 days, Chga-KO mice on high fat diet), the blood glucose entry is given as “led to hyperglycemia”. Moreover, in the test on KO-DIO mice (chronic PST 5 μg/g BW for 15 days), the “insulin sensitivity phenotype on HFD” value is given as “abolished”. For the same substance, in the test with KO-DIO mice (setting [1]), the fasting glucose result is on record as “raised” and the “fasting plasma insulin levels” value is recorded as “raised”. Moreover, in the test with Bip/GRP78, the “binding to ER chaperone Bip/GRP78” value was “binds”.
